Usually EC50 stands for the midpoint of the concentration-response curve.

Here are results for one compound from PMC11448502, “Cryo-EM structures of the human P2X1 receptor reveal subtype-specific architecture and antagonism by supramolecular ligand-binding” (Nature Communications, 2024).

Numbering of substitutions follows the chain as printed. Where “and” joins values, the source holds several entries; their conditions need not be identical. Identical values can stand only once. Entries after “also recorded” stand apart in the source; their conditions may differ.

Common to all, as to test: ATP dose response (EC50), TEVC in oocytes
What all share (assay type): cell-based

One assay deals with T1, hP2X1 K136A (Homo sapiens, UniProt P51575, K136A).
T1 construct: hP2X1 mRNA that was made from linearized full-length wild-type or mutant pcDNA 3.1x; expressed in transfected cells; host or cells: Xenopus laevis oocytes (mRNA injection)
T1 sequence (P51575 1-399 K136A): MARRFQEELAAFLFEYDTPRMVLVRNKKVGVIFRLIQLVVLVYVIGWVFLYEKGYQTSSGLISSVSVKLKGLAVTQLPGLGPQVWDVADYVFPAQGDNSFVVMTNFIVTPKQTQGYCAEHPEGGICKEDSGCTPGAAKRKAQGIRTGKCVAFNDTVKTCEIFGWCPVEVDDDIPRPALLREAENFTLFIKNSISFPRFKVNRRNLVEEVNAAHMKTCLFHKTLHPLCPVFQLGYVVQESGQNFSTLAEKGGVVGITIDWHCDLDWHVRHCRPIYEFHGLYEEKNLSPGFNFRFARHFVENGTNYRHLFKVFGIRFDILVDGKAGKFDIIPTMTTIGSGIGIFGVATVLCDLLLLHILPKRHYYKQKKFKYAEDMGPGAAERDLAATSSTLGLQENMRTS
The method, then: (§1) Oocytes were purchased defolliculated from Ecocyte Bioscience in Barth’s Solution (88 mM NaCl, 1 mM KCl, 0.82 mM MgSO4, 0.33 mM Ca(NO3)2, 0.41 mM CaCl2, 2.4 mM NaHCO3, 5 mM Tris-HCl) supplemented with penicillin (100 U/mL) and streptomycin (100 µg/mL). Xenopus laevis oocytes were then injected with 50 nL of 100 ng/μL hP2X1 mRNA that was made from linearized full-length wild-type or mutant pcDNA 3.1x according to the protocol provided in the mMessage mMachine kit (Invitrogen). Injected oocytes were allowed to express for ~20 hours at 18 °C before recording was performed.
(§2) Data acquisition was performed using the Oocyte Clamp OC-725C amplifier and pClamp 8.2 software. Buffers were applied using a gravity fed RSC-200 Rapid Solution Changer that flows at ~5 mL/min. All experiments use Sutter filamented glass 10 cm in length with an inner diameter of 0.69 mm and an outer diameter of 1.2 mm to impale oocytes and clamp the holding voltage at −60 mV. Experiments were recorded in buffer containing 10 mM HEPES (pH 7.4), 140 mM NaCl, 5 mM KCl, 2 mM CaCl2, 2 mM MgCl2, and 10 mM glucose.
(§3) Excitatory responses to a dilution series of ATP between 6.4 nM and 10 mM were examined across the different mutants. Each evoked response was normalized to an initial ATP-induced current evoked by the following concentrations: 500 µM ATP for R292A, 2 mM ATP for K309A, and 100 µM ATP for the remaining mutants and wild-type receptor. The data was fit in Prism 9 using the nonlinear regression named “EC50, x is concentration” to afford EC50 values. This value was then averaged amongst each singular condition and reported as an average plus or minus the standard deviation.

A further assay has as its target T2, hP2X1 WT (Homo sapiens, UniProt P51575).
T2 construct: hP2X1 mRNA that was made from linearized full-length wild-type or mutant pcDNA 3.1x; expressed in transfected cells; host or cells: Xenopus laevis oocytes (mRNA injection)
T2 sequence (P51575 1-399): T1 sequence (P51575 1-399 K136A) with A136K
The procedure:
as §1, §2, §3

The target in the next assay is T3, hP2X1 K249A (Homo sapiens, UniProt P51575, K249A).
T3 construct: hP2X1 mRNA that was made from linearized full-length wild-type or mutant pcDNA 3.1x; expressed in transfected cells; host or cells: Xenopus laevis oocytes (mRNA injection)
T3 sequence (P51575 1-399 K249A): T1 sequence (P51575 1-399 K136A) with A136K, K249A
Particulars: for Normalized Current: hP2X1 K249A. The method, then:
as §1, §2, §3

For the next assay, the target named is T4, hP2X1 D170A (Homo sapiens, UniProt P51575, D170A).
T4 construct: hP2X1 mRNA that was made from linearized full-length wild-type or mutant pcDNA 3.1x; expressed in transfected cells; host or cells: Xenopus laevis oocytes (mRNA injection)
T4 sequence (P51575 1-399 D170A): T1 sequence (P51575 1-399 K136A) with A136K, D170A
The following applies: for Normalized Current: hP2X1 D170A. The method, then:
as §1, §2, §3

With `Nc1ncnc2c1ncn2[C@@H]1O[C@H](COP(=O)(O)OP(=O)(O)OP(=O)(O)O)[C@@H](O)[C@H]1O` [ATP], the “EC50 of ATP” value at hP2X1 K136A (TEVC) is “did not affect”. Besides, the “Normalized Current” value on hP2X1 K136A ([ATP] 1.000E-04 M) was 0.9825 and 0.9019 and 0.8989; on hP2X1 K136A ([ATP] 2.000E-05 M) it was 0.8446 and 0.8328 and 0.7216; on hP2X1 K136A ([ATP] 4.000E-06 M), 0.7216 and 0.6921 and 0.6232; on hP2X1 K136A ([ATP] 5.000E-04 M), 1.035 and 0.9912 and 0.9735; at hP2X1 K136A ([ATP] 8.000E-07 M) it was 0.3703 and 0.2936 and 0.2241; on hP2X1 WT ([ATP] 1.000E-04 M), 1.041 and 0.9705 and 0.9151. Besides, the “Normalized Current” value on hP2X1 WT ([ATP] 1.600E-07 M) was 0.08801 and 0.07128 and 0.05984; at hP2X1 WT ([ATP] 4.000E-06 M), 0.7387 and 0.5911 and 0.5682; on hP2X1 WT ([ATP] 5.000E-04 M) it was 1.055 and 1.025 and 0.9207; at hP2X1 WT ([ATP] 8.000E-07 M), 0.4523 and 0.3946 and 0.3316; on hP2X1 K249A ([ATP] 1.000E-04 M) it was 1.03 and 1.005 and 0.9647; on hP2X1 K249A ([ATP] 2.000E-05 M), 1.005 and 0.9326 and 0.8353. Besides, the “Normalized Current” value was 0.7721 and 0.7584 and 0.7231 on hP2X1 K249A ([ATP] 4.000E-06 M); 0.6172 and 0.5832 and 0.5545 at hP2X1 K249A ([ATP] 8.000E-07 M); 0.9915 and 0.8795 and 0.8416 on hP2X1 D170A ([ATP] 1.000E-04 M); 0.8809 and 0.7486 and 0.74 on hP2X1 D170A ([ATP] 2.000E-05 M); 0.000000 on hP2X1 D170A ([ATP] 3.200E-08 M); 0.723 and 0.5398 and 0.4488 on hP2X1 D170A ([ATP] 4.000E-06 M). Further, the “Normalized Current” value on hP2X1 D170A ([ATP] 5.000E-04 M) was 1.029 and 1.009 and 0.9611. In addition, on hP2X1 WT (TEVC, Xenopus laevis oocytes, mean ± SD, triplicate, read-out: apparent affinity (EC50) of ATP), the EC50 turned out to be 1700 ± 300 nM. On hP2X1 WT (mean ± SD of three EC50 traces), the “Hill slope of activation by ATP” value was determined as 0.9 ± 0.2. In addition, the “apparent affinity (EC50) of ATP, effect of mutation” value on hP2X1 K249A (hP2X1 K249A vs wild-type, TEVC) is “do not appear to significantly change; also recorded: no major effect; also recorded: moderately increases”; on hP2X1 D170A (hP2X1 D170A vs wild-type, TEVC), “do not appear to significantly change; also recorded: no major effect; also recorded: does not significantly impact”.
